From patent US20050009023A1, “Glucocorticoid-induced receptor and methods of use” (priority 2001, published 2005)

Assays:
[1] = tested on: GIR mRNA in rat prefrontal cortex; experiment: GIR mRNA expression following chronic amphetamine administration (competitive RT-PCR); assay type: in vivo; settings: for GIR mRNA levels in prefrontal cortex: mean±SE, n=6
Protocol: (§1) GIR mRNA Expression Following Chronic Amphetamine Administration. Male Sprague-Dawley rats (200-250g, Harlan Sprague-Dawley Laboratories, Indianapolis, Ind.) received subcutaneous injection of either d-amphetamine (AMPH) (2.5 mg/kg) or saline (1 ml/kg) in their home cages once daily for 5 consecutive days (days 1-5). On day 9, four days following completion of this pre-treatment regimen, all animals were transferred to Residential Activity Chambers (RACs) (Segal and Kuczenski, 1987; Richtand et al., 2000), and received saline injection (1 ml/kg) on days 10 and 11 to measure conditioned response to injection. On day 12, seven days following completion of the pre-treatment regimen, all rats received AMPH (2.5 mg/kg) and locomotor activity was determined by photobeam monitoring for 150 minutes following injection. Locomotor activity is expressed as crossovers, defined as the number of times the animal crosses into any of four quadrants subdividing the enclosure. All animals were sacrificed by decapitation 4 hours following injection and total RNA was extracted from prefrontal cortex for determination of GIR mRNA expression. In a separate experiment, rats were injected with either AMPH (2.5 mg/kg) or saline (1 ml/kg) for 5 consecutive days, and sacrificed by decapitation 7 days after the last injection without the final AMPH challenge. Thus, four groups were generated: SAL-AMPH (Saline×5 days and AMPH at challenge), AMPH-AMPH (AMPH×5 days and AMPH at challenge), SAL (Saline×5 days), and AMPH (AMPH×5 days).
Construction of Competitor DNA and Quantitative RT-PCR. To construct the mutant template for competitive PCR, a 20 bp GIR sequence (5′-[…]-3′, 1213-1232 bp in FIG. 1; SEQ ID NO: 18) was incorporated into the upstream primer so that a rat GIR cDNA fragment was amplified by RT-PCR using the chimeric upstream primer (5′-[…]-3′, 1213-1232 bp in FIG. 1; SEQ ID NO:19) and the downstream primer (5′-CGGCCACAGTGGGTTCCAC-3′, 1575-1557 in FIG. 1; SEQ ID NO:13). The 262 bp PCR product was subcloned into pGEM-T vector (Promega, Madison, Wis.). The plasmid DNA was purified (Qiagen, Valencia, Calif.) and insert was verified by DNA sequencing. A fragment containing the mutant rat GIR template (262 bp) was released by EcoRI digestion and purified by agarose gel electrophoresis. DNA concentration was determined spectrophotometrically. Serial dilutions of mutant template were prepared.
The amount of GIR mRNA was quantitated by competitive RT-PCR as described previously (Miao et al., 2000). Briefly, reverse transcription was performed with 2 μg of total RNA using a non-specific random hexamer primer (Promega, Madsion, Wis.). One μl of first strand cDNA was mixed with known amounts of linearized competitor DNA ranging from […], and subjected to co-amplification with GIR-specific primers (5′-[…]-3′, 1213-1232 bp, SEQ ID NO:IS; and 5′-CGGCCACAGTGGGTTCCAC-3′, 1575-1557 bp in FIG. 1, SEQ ID NO:14). PCR was run for 30 cycles of 94° C./1 min, 60° C./2 min 72° C./3 min, and the PCR products were electrophoresed on 1.2% agarose gel. The intensities of bands, corresponding to the products from the GIR mRNA and the competitor with 101-bp size difference, was analyzed densitometrically by BioImage system combined with NIH software (Bio-Rad, Hercules, Calif.). The intensity ratios between the two bands were logarithmically plotted against the known initial input of competitor template, and the amount of GIR mRNA in the total RNA samples was calculated by linear regression. […]

Male Sprague-Dawley rats = experiment: Locomotor activity (crossovers) after amphetamine challenge, behavioral sensitization; assay type: in vivo, rat; settings: AMPH 2.5 mg/kg challenge, mean±SE
Protocol: as §1

For `C[C@H](N)Cc1ccccc1` [amphetamine, D-Amphetamine], the “GIR mRNA levels in prefrontal cortex, increase of AMPH-AMPH rats compared to SAL-AMPH rats” value ([1]; AMPH 2.5 mg/kg s.c. x5 days, AMPH challenge 7 days after, sacrificed 4 hours after injection, n=6, P<0.05) was 1.38 fold, the “GIR mRNA levels in prefrontal cortex, increase of AMPH rats compared to SAL rats” value ([1]; AMPH 2.5 mg/kg x5 days, no challenge injection, 7 days after last injection, n=6, P<0.05) was 1.70 fold and the “GIR mRNA levels in prefrontal cortex” value ([1]; AMPH rats (AMPH x5 days, no challenge), 7 days after amphetamine ceased) was 3.65±0.22 fg/100 ng total RNA. For the same compound, the “GIR mRNA levels in prefrontal cortex” value ([1]; AMPH-AMPH rats (AMPH x5 days and AMPH at challenge), 2.5 mg/kg s.c.) was 2.97(±0.26 fg/100 ng total RNA, the “GIR mRNA levels in prefrontal cortex” value ([1]; SAL-AMPH rats (saline x5 days and AMPH 2.5 mg/kg at challenge)) was 2.27(±0.22 fg/100 ng total RNA and the “locomotion at 12-60 min post-injection (focused stereotypy phase)” value (Male Sprague-Dawley rats; AMPH-AMPH rats, n=6, P<0.0001) was 50.20±12.63 crossovers/12-60 min. The “locomotion at 60-150 min (post-stereotypy locomotion phase)” value (Male Sprague-Dawley rats; AMPH-AMPH rats, n=6, P<0.05) was 496.67±70.28 crossovers/60-150min, the “locomotion at 12-60 min post-injection (focused stereotypy phase)” value (Male Sprague-Dawley rats; SAL-AMPH rats, n=6) was 286.00±27.57 crossovers/12-60 min and the “locomotion at 60-150 min (post-stereotypy locomotion phase)” value (Male Sprague-Dawley rats; SAL-AMPH rats, n=6) was 312.25±29.17 crossovers/60-150min.
